Experimental data published in patent publication US5834506A, “Dihydropyrones with improved antiviral activity” (Warner-Lambert Company, priority 1997, dated 1998).
Where two headings read alike, the source gives them in different places.

Columns and labels:
HIV-1 protease = target: T1, HIV-1 protease (Human immunodeficiency virus type 1 group M subtype B, UniProt P04585); assay: biochemical; conditions: read-out: Inhib of HIV-Protease IC50
T1 construct: Recombinant HIV-1 protease (>96% purity); purchased Bachem Bioscience Inc. (King of Prussia, PA)
Text: The testing of specific 5,6-dihydropyrones as inhibitors of the HIV aspartyl protease, based on the study of the hydrolysis of an undecapeptide enzyme substrate, and the testing of the 5,6-dihydropyrones as inhibitors of viral growth and infectivity, based on the study of infection of H9 cell lines by the HIV-1iiib strain, are also disclosed. […] The methods employed follow the procedures of Tummino, et al. (Archives of Biochemistry and Biophysics 1995, 316, 523).
(§1) The compounds of the present invention were evaluated for their in vitro inhibition of HIV-1 protease and for their antiviral efficacy in HIV infected lymphocytes.
Recombinant HIV-1 protease (>96% purity) and HIV protease substrate III (the undecapeptide H-His-Lys-Ala-Arg-Val-Leu-Nph-Glu-Ala-Nle-Ser-NH2,>97% purity) were purchased from Bachem Bioscience Inc. (King of Prussia, PA).
The methods employed follow the procedures of Tummino, et al. (Archives of Biochemistry and Biophysics 1995, 316, 523). […] (total volume, 100 μl). […] The final inhibitor concentrations used were 0 (0.1, 0.2, in some experiments), 0.5, 1, 2, 5, 10, 20, 50, and 100 μM. The solution was mixed, incubated for 5 minutes and the reaction quenched by addition of trifluoracetic acid, 2% final. The (leu-p-nitro-phe) bond of the substrate is cleaved by the enzyme and substrate and products separated by reverse-phase HPLC. Absorbance was measured at 220 nm, peak areas determined, and percentage conversion to product used to calculate percentage control (=[% conversion (+inhibitor)/% conversion (-inhibitor)]×100).

[1] = test system: HIV in lymphocyte derived CEM cells; assay: Cellular Infection Assay, antiviral efficacy in HIV infected CEM cells (XTT cytopathic procedure); assay type: cell-based; conditions: Human immunodeficiency virus 1, CCRF-CEM; for EC95: protecting the cells 95% relative to untreated control; for EC50: read-out: Antiviral Efficacy EC50
Method: as §1
(§2) Compounds were tested in lymphocyte derived CEM cells using the XTT cytopathic procedures and were performed at Southern Research Institute (Buckheit, et. al. Antiviral Res. 1993, 21, 247; see also Weislow, et al. J Nat. Cancer Inst., 1989, 81, 577). Compound concentrations were 0.32, 1, 3.2, 10, 32 and 100 uM. The EC50 represents the concentration of agent which reduces HIV cytopathic effects 50% relative to untreated control. EC95 represents the concentration of agent protecting the cells 95% relative to untreated control. Cellular toxicity of the agents are estimated from the TC50 which represents the concentration of the agent which inhibits 50% of the viability of uninfected cells.

[2] = Cellular toxicity in uninfected CEM cells (TC50); assay type: cell-based; conditions: human, inhibits 50% of the viability of uninfected cells
Method: as §2

[3] = 6.0 nM HIV-1 protease, 40 μM substrate III, 37° C., 5 minutes
[4] = CEM cells, reduces HIV cytopathic effects 50% relative to untreated control

Row | Structure (SMILES) | IC50 (HIV-1 protease; [3]) | EC50 [1, 4] | IC50 (HIV-1 protease) | EC95 ([1]; CEM cells) | CC50 [2] | EC50 [1]
1 | Cc1cc(SC2=C(O)CC(CCc3ccccc3)(c3ccc(OCCN4CCNCC4)cc3)OC2=O)c(C(C)(C)C)cc1OS(=O)(=O)N(C)C (centres unmarked) [Example 26, Dimethyl-sulfamic acid 5-tert-butyl-4-{4-hydroxy-2-oxo-6-phenethyl-6-[4-(2-piperazin-1-yl-ethoxy)-phenyl]-5,6-dihydro-2H-pyran-3-ylsulfanyl}-2-methyl-phenyl ester] | 0.0051 µM |  |  | 9.3 µM | > 100 µM | 5.1 µM
2 | Cc1cc(SC2=C(O)CC(C)(CCc3ccc(O)cc3)OC2=O)c(C(C)(C)C)cc1OS(=O)(=O)N1CCN(C)CC1 (centres unmarked) [Example 31, 4-Methyl-piperazine-1-sulfonic acid 5-tert-butyl-4-{4-hydroxy-6-[2-(4-hydroxy-phenyl)-ethyl]-6-methyl-2-oxo-5,6-dihydro-2H-pyran-3-ylsulfanyl}-2-methyl-phenyl ester] | 0.0071 µM | 2.3 µM |  | 8.4 µM | > 100 µM | 
3 | Cc1ccc(C(C)(C)C)c(SC2=C(O)CC(CCc3ccccc3)(c3ccc(OCCN4CCNCC4)cc3)OC2=O)c1 (centres unmarked) [Example 35, 3-(2-tert-Butyl-5-methyl-phenylsulfanyl)-4-hydroxy-6-phenethyl-6-[4-(2-piperazin-1-yl-ethoxy)-phenyl]-5,6-dihydro-pyran-2-one] | 0.0063 µM | 3.5 µM |  | 8 µM | 84 µM | 
4 | Cc1cc(SC2=C(O)CC(C)(CCc3ccc(O)cc3)OC2=O)c(C(C)(C)C)cc1OS(N)(=O)=O (centres unmarked) [Example 43] | 0.0018 µM | 5.2 µM |  | 9.4 µM | 69 µM | 
5 | Cc1cc(SC2=C(O)CC(CCc3ccccc3)(c3ccc(OCCO)cc3)OC2=O)c(C(C)(C)C)cc1OS(=O)(=O)N1CCN(C)CC1 (centres unmarked) [Example 46] | 0.012 µM | 5.4 µM |  | 9.8 µM | 58 µM | 
6 | CCNS(=O)(=O)Oc1cc(C(C)(C)C)c(SC2=C(O)CC(CCc3ccc(O)c(OC)c3)(c3ccc(OCCO)cc3)OC2=O)cc1C (centres unmarked) [Example 48] | 0.0024 µM | 6.9 µM |  | 26 µM | > 100 µM | 
7 | Cc1cc(SC2=C(O)CC(CCc3ccc(O)cc3)(C(C)C)OC2=O)c(C(C)(C)C)cc1OS(=O)(=O)N1CCN(C)CC1 (centres unmarked) [Example 67] |  | 0.5 µM | 0.0031 µM | 2 µM | > 100 µM | 
8 | Cc1cc(SC2=C(O)CC(C)(CCc3ccc(O)cc3)OC2=O)c(C(C)(C)C)cc1NC(=O)c1ccc(C#N)cc1 (centres unmarked) [Example 68] | 0.056 µM | 16 µM |  | 30 µM | > 100 µM | 
9 | Cc1cc(SC2=C(O)CC(C)(CCc3ccc(O)cc3)OC2=O)c(C(C)(C)C)cc1NS(=O)(=O)c1ccc(F)cc1 (centres unmarked) [Example 71] | 0.0037 µM | 2.4 µM |  | 8.6 µM | 93 µM | 
10 | Cc1cc(SC2=C(O)CC(CCc3ccc(N)cc3C)(C3CCCCC3)OC2=O)c(C(C)(C)C)cc1CO (centres unmarked) [Example 72] | 0.0044 µM | 0.5 µM |  | 8.5 µM | 66 µM | 
11 | Cc1cc(SC2=C(O)CC(CCc3ccc(O)cc3)(C(C)C)OC2=O)c(C(C)(C)C)cc1NS(=O)(=O)c1cccs1 (centres unmarked) [Example 77] | 0.0087 µM | 1.8 µM |  | 5.2 µM | > 100 µM | 

Continued, in another order:

Row | IC50 (HIV-1 protease; [3]) | EC50 [1, 4] | IC50 (HIV-1 protease) | Structure (SMILES) | EC95 ([1]; CEM cells) | CC50 [2] | EC50 [1]
12 | 0.0021 µM | 4.8 µM |  | Cc1cc(SC2=C(O)CC(CCc3cccc(O)c3)(CCc3cccc(O)c3)OC2=O)c(C(C)(C)C)cc1CO [Example 21, 3-(2-tert-Butyl-4-hydroxymethyl-5-methyl-phenylsulfanyl)-4-hydroxy-6,6-bis-[2-(3-hydroxy-phenyl)ethyl]-5,6-dihydro-pyran-2-one] | 9.3 µM | 66 µM | 
13 | 0.009 µM | 2.3 µM |  | Cc1cc(SC2=C(O)CC(CCc3cccc(O)c3)(CCc3cccc(O)c3)OC2=O)c(C(C)(C)C)cc1OS(=O)(=O)N(C)C [Example 22, Dimethyl-sulfamic acid 5-tert-butyl-4-{4-hydroxy-6,6-bis-[2-(3-hydroxy-phenyl)-ethyl]-2-oxo-5,6-dihydro-2H-pyran-3-yisulfanyl}-2-methyl-phenyl ester] | 8.3 µM | 66 µM | 
14 | 0.0034 µM | 2 µM |  | COc1cc(CCC2(CCc3ccc(O)c(OC)c3)CC(O)=C(Sc3cc(C)c(OCCO)cc3C(C)(C)C)C(=O)O2)ccc1O [Example 23, 3-[2-tert-Butyl-4-(2-hydroxy-ethoxy)-5-methyl-phenylsulfanyl]-4-hydroxy-6,6-bis [2-(4-hydroxy-3-methoxy-phenyl)-ethyl]-5,6-dihydro-pyran-2-one] | 7.9 µM | 61 µM | 
15 | 0.0013 µM | 5.5 µM |  | CCNS(=O)(=O)Oc1cc(C(C)(C)C)c(SC2=C(O)CC(CCc3ccc(O)cc3)(CCc3ccc(O)cc3)OC2=O)cc1C [Example 28] | 9.4 µM | 67 µM | 
16 | 0.0018 µM | 1.2 µM |  | CCNS(=O)(=O)Oc1cc(C(C)(C)C)c(SC2=C(O)CC(CCc3ccc(N)cc3)(CCc3ccc(N)cc3)OC2=O)cc1C [Example 29, Ethyl-sulfamic acid 5-tert-butyl-4-{6,6-bis-[2-(4-amino-phenyl)-ethyl]-4-hydroxy-2-oxo-5,6-dihydro-2H-pyran-3-ylsulfanyl}2-methyl-phenyl ester] | 2.9 µM | 66 µM | 
17 | 0.0055 µM | 5 µM |  | Cc1cc(SC2=C(O)CC(CCc3ccc(O)cc3)(CCc3ccc(O)cc3)OC2=O)c(C(C)(C)C)cc1OS(=O)(=O)N1CCN(C)CC1 [Example 30, 4-Methyl-piperazine-1-sulfonic acid 5-tert-butyl-4-{4-hydroxy-6,6-bis-[2-(4-hydroxy-phenyl)-ethyl]-2-oxo-5,6-dihydro-2H-pyran-3-ylsulfanyl}-2-methyl-phenyl ester] | 9.3 µM | 66 µM | 
18 | 0.0016 µM | 4.7 µM |  | Cc1cc(SC2=C(O)CC(CCc3ccc(O)cc3)(c3ccccc3)OC2=O)c(C(C)(C)C)cc1CO (centres unmarked) [Example 36, 3-(2-tert-Butyl-4-hydroxymethyl-5-methyl-phenylsulfanyl)-4-hydroxy-6-[2-(4-hydroxy-phenyl)-ethyl]-6-phenyl-5,6-dihydro-pyran-2-one] | 20 µM | > 100 µM | 
19 |  | 6.1 µM | 0.0025 µM | Cc1cc(SC2=C(O)CC(CCc3cccc(O)c3)(c3ccccc3)OC2=O)c(C(C)(C)C)cc1CO (centres unmarked) [Example 37, 3-(2-tert-Butyl-4-hydroxymethyl-5-methyl-phenylsulfanyl)-4-hydroxy-6-[2-(3-hydroxy-phenyl)-ethyl]-6-phenyl-5,6-dihydro-pyran-2-one] |  | > 100 µM | 
20 |  | < 0.3 µM | 0.001 µM | Cc1cc(SC2=C(O)C[C@@](CCc3ccc(O)cc3)(C(C)C)OC2=O)c(C(C)(C)C)cc1CO [Example 38, (S)-3-(2-tert-Butyl-4-hydroxymethyl-5-methyl-phenylsulfanyl)-4-hydroxy-6-[2-(4-hydroxy-phenyl)-ethyl]-6-isopropyl-5,6-dihydro-pyran-2-one (+)] | 1 µM | > 100 µM | 
21 | 0.0019 µM | < 0.3 µM |  | Cc1cc(SC2=C(O)CC(CCc3cccc(O)c3)(C3CCCC3)OC2=O)c(C(C)(C)C)cc1CO (centres unmarked) [Example 39, 3-(2-tert-Butyl-4-hydroxymethyl-5-methyl-phenylsulfanyl)-6-cyclopentyl-4-hydroxy-6-[2-(3-hydroxy-phenyl)-ethyl]-5,6-dihydro-pyran-2-one] | 0.6 µM | > 100 µM | 
22 | 0.021 µM | 2.8 µM |  | Cc1cc(SC2=C(O)CC(CCc3ccc(O)cc3)(C(C)C)OC2=O)c(C(C)(C)C)cc1NC(=O)c1ccccc1 (centres unmarked) [Example 58] | 24 µM | 66 µM | 
23 | 0.0031 µM | 1 µM |  | Cc1cc(SC2=C(O)CC(CCc3ccc4c(c3)OCO4)(C(C)C)OC2=O)c(C(C)(C)C)cc1CO (centres unmarked) [Example 61] | 15 µM | 78 µM | 
24 | 0.0031 µM | 0.6 µM |  | Cc1cc(SC2=C(O)CC(CCc3ccc(O)cc3)(C3CCCC3)OC2=O)c(C(C)(C)C)cc1CO (centres unmarked) [Example 62] | 2.5 µM | > 100 µM | 
